In PubChem BioAssay (NCI):
“And” between values parts separate entries of the source, which are not always exact repeats. Equal values may be shown once.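 Results reflect a 48-hour exposure of cells in 96-well plates to compound at five concentrations. The concentration for 50% growth inhibition is given as GI50. TGI: concentration producing complete growth inhibition.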

Experiments:
Experiment in all cases: inhibition of tumour cell growth, NCI panel, 48 h
HT29 colon = test system: HT29 colon
MDA-MB-435 = test system: MDA-MB-435
UACC-257 melanoma = test system: UACC-257 melanoma
SF-268 CNS = test system: SF-268 CNS
PC-3 prostate = test system: PC-3 prostate
HOP-62 NSCLC = test system: HOP-62 NSCLC
A498 renal = test system: A498 renal
UACC-62 melanoma = test system: UACC-62 melanoma
BT-549 breast = test system: BT-549 breast

Row | SMILES | TGI (HT29 colon) [µM] | TGI (MDA-MB-435) [µM] | TGI (UACC-257 melanoma) [µM] | TGI (SF-268 CNS) [µM] | TGI (PC-3 prostate) [µM] | TGI (HOP-62 NSCLC) [µM] | TGI (A498 renal) [µM] | TGI (UACC-62 melanoma) | TGI (BT-549 breast) [µM] | GI50 (HT29 colon) [µM] | GI50 (MDA-MB-435) [µM] | GI50 (UACC-257 melanoma) [µM] | GI50 (SF-268 CNS) [µM] | GI50 (PC-3 prostate) [µM] | GI50 (HOP-62 NSCLC) [µM] | GI50 (A498 renal) | GI50 (UACC-62 melanoma) [µM]
1 | OC1C[C@H](c2ccccc2)C2(C(O)c3ccccc3C2O)[C@@H](c2ccccc2)C1 (stereo partly drawn) | > 100 | > 100 | > 100 | > 100 | > 100 | > 100 | > 100 | > 100 µM | > 100 | – | – | – | – | – | – | – | –
2 | C=CCC(C(=O)Nc1cccc2[nH]cnc12)C(=O)OCC (stereo not drawn) | > 100 | > 100 | > 100 | > 100 | > 100 | > 100 | > 100 | > 100 µM | > 100 | – | – | – | – | – | – | – | –
3 | CCOc1ccc2c(c1)c(=O)c1c(NCCN(CC)CC)ccc3nnn2c31 | 32 | 32.5 | > 59.6 | > 80.2 | 49.7 | > 48.8 | > 100 | > 100 µM | > 100 | – | – | – | – | – | – | – | –
4 | O=[N+]([O-])c1cccc2nccc(NCCCO)c12 | 74.1 | 26.9 | 23.6 | 28.6 | 69.8 | 35.4 | 23.6 | 23.3 µM | 21.6 | – | – | – | – | – | – | – | –
5 | Cc1cn(S(=O)(=O)c2ccccc2)c2c(OCc3ccccc3)cc(NS(C)(=O)=O)cc12 | 17.2 | > 100 | > 78 | > 77.9 | 29 | > 100 | 50.3 | > 89.2 µM | > 100 | – | – | – | – | – | – | – | –
6 | NC(N)=NCCCC(NC(=O)OCCCCn1ccc(N)nc1=O)C(=O)O (stereo not drawn) | > 100 | > 100 | > 100 | > 100 | > 100 | > 100 | > 100 | > 100 µM | > 100 | – | – | – | – | – | – | – | –
7 | C=CCn1c(-c2ccc([N+](=O)[O-])cc2)csc1=N | > 100 | > 100 | > 100 | > 100 | > 100 | > 100 | > 100 | > 100 µM | > 100 | – | – | – | – | – | – | – | –
8 | Cn1c(O)c(C=Nc2ccccc2Cl)c(=O)n(C)c1=O | > 100 | > 100 | > 100 | > 100 | > 100 | 52.4 | > 100 | > 100 µM | > 100 | – | – | – | – | – | – | – | –
9 | CC(=O)OC1COC(Nc2nc(N)n(C)c(=O)c2N=O)C(OC(C)=O)C1OC(C)=O (stereo not drawn) | > 10 | > 10 | > 10 | > 10 | > 10 | > 10 | > 10 | > 10 µM | > 10 | – | – | – | – | – | – | – | –
10 | CC1=NN(c2nc(N)nc(CF)n2)C(C)(C)C1 | > 100 | > 100 | > 100 | > 100 | > 100 | > 100 | > 100 | > 100 µM | > 100 | – | – | – | – | – | – | – | –
11 | CN(C)/N=N/c1nc[nH]c1C(N)=O | > 1000 | > 1000 | > 1000 | > 791 | > 1000 | – | > 875 | > 98.6 µM and 363 µM | > 1000 | 607 | 31.4 | 225 | 54.8 | 77.2 | 43.8 | 72.4 µM and > 133 µM | 23.8
12 | [N-]=[N+]=Nc1c([N+](=O)[O-])c(=O)n2c3c(cccc13)CCC2 | 36.1 | 31.2 | 21.5 | 21.3 | 30.7 | > 100 | 50.4 | 29.9 µM | 32.7 | – | – | – | – | – | – | – | –
13 | COc1ccc(C2=NN=C3C(c4ccccc4)=Nc4ccccc4N3C2)cc1 | 74.3 | > 100 | > 100 | > 100 | > 100 | > 100 | > 100 | > 100 µM | > 100 | – | – | – | – | – | – | – | –
14 | CCOC(=O)/C=C(\C(=O)OCC)n1ccc(=O)[nH]c1=O | 31 | 38 | 12.3 | 42 | 30.7 | 53.6 | 34.8 | 31.3 µM | 30.7 | – | – | – | – | – | – | – | –
15 | CC(C)(C)OC(=O)NCC(=O)N1CCN(C(=O)CNC(=O)OC(C)(C)C)CC1 | > 100 | > 100 | > 100 | 39.7 | > 100 | > 100 | > 100 | > 100 µM | > 100 | – | – | – | – | – | – | – | –
16 | Oc1cc(Br)cc2cc(Cl)cnc12 | > 40.9 | > 67.7 | > 100 | > 39.9 | > 100 | > 60.4 | 22.9 | 6.1 µM | 47.6 | – | – | – | – | – | – | – | –
17 | CC(C)(C)CC(C)(C)c1ccc(O)c(C[N+](C)(C)[O-])c1 | > 100 | > 100 | > 100 | > 100 | > 100 | > 100 | > 100 | > 100 µM | > 100 | – | – | – | – | – | – | – | –
18 | S=c1[nH]c2ccc(I)cc2c(=S)n1Cc1ccccc1 | 38.9 | > 100 | 7.34 | 25.3 | 15.5 | 22.8 | 55.4 | – | 27 | – | – | – | – | – | – | – | –
19 | CCC[C@@H]1C(=O)N=C(N)N1C(=O)OCc1ccccc1 | > 100 | > 100 | > 100 | > 100 | > 100 | > 100 | > 100 | > 100 µM | > 100 | – | – | – | – | – | – | – | –
20 | Cc1cc(S(=O)(=O)/N=C(/NN)NNc2cccc(C(F)(F)F)n2)c(S)cc1Cl | 43.1 | 40.6 | 89.9 | 57.4 | 50.7 | 86.4 | 50.1 | 37 µM | 36.7 | – | – | – | – | – | – | – | –
21 | C[N+](C)(CCNC(=O)c1cccc2cc3ccccc3nc12)Cc1ccc([N+](=O)[O-])s1 | > 25 | > 25 | > 25 | > 25 | > 25 | > 25 | > 25 | > 25 µM | > 25 | – | – | – | – | – | – | – | –
22 | Oc1ccc(Cl)cc1C1=NC(/N=C\c2ccccc2)=NC(c2ccccc2)C1 (stereo not drawn) | > 100 | > 100 | > 100 | > 100 | > 100 | > 100 | > 100 | > 100 µM | > 100 | – | – | – | – | – | – | – | –
23 | CCN1CCC(O)(/C=C/c2ccc(C(C)C)cc2)C(C(=O)/C=C/c2ccc(C(C)C)cc2)C1 (stereo not drawn) | 6.21 | 8.99 | 19.4 | 4.31 | 11.4 | 13.3 | 19.1 | 15.7 µM | 16.2 | – | – | – | – | – | – | – | –
